PubChem BioAssay (NCI)
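Five compound concentrations were applied to cells in 96-well plates for 48 hours; endpoints were derived by simple linear interpolation of the resulting dose-response curve. GI50 marks 50% less growth. The concentration for full growth arrest is given as TGI.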

What was measured:
Experiment in all cases: NCI-60 cell line screen, 48 h
SF-539 CNS = system: SF-539 CNS
CCRF-CEM leukemia = system: CCRF-CEM leukemia
MDA-MB-231 breast = system: MDA-MB-231 breast
SF-295 CNS = system: SF-295 CNS
SNB-19 CNS = system: SNB-19 CNS
CAKI-1 renal = system: CAKI-1 renal
HCT-116 colon = system: HCT-116 colon
UACC-257 melanoma = system: UACC-257 melanoma
MCF7 breast = system: MCF7 breast
PC-3 prostate = system: PC-3 prostate
HCC-2998 colon = system: HCC-2998 colon
RPMI-8226 leukemia = system: RPMI-8226 leukemia
OVCAR-8 ovarian = system: OVCAR-8 ovarian
A549 NSCLC = system: A549 NSCLC
NCI-H226 lung = system: NCI-H226 lung
HL-60(TB) leukemia = system: HL-60(TB) leukemia
NCI-H522 lung = system: NCI-H522 lung
RXF 393 renal = system: RXF 393 renal
HOP-62 NSCLC = system: HOP-62 NSCLC
ACHN renal = system: ACHN renal
KM12 colon = system: KM12 colon
COLO 205 colon = system: COLO 205 colon
OVCAR-5 ovarian = system: OVCAR-5 ovarian
SF-268 CNS = system: SF-268 CNS
HOP-92 NSCLC = system: HOP-92 NSCLC
EKVX NSCLC = system: EKVX NSCLC
NCI/ADR-RES ovarian = system: NCI/ADR-RES ovarian
SK-MEL-5 melanoma = system: SK-MEL-5 melanoma
NCI-H23 lung = system: NCI-H23 lung
A498 renal = system: A498 renal
MDA-MB-435 = system: MDA-MB-435
SNB-75 CNS = system: SNB-75 CNS
HCT-15 colon = system: HCT-15 colon
SN12C renal = system: SN12C renal
SK-OV-3 ovarian = system: SK-OV-3 ovarian
SR leukemia = system: SR leukemia
SK-MEL-28 melanoma = system: SK-MEL-28 melanoma
M14 melanoma = system: M14 melanoma
SW-620 colon = system: SW-620 colon
UO-31 renal = system: UO-31 renal
SK-MEL-2 melanoma = system: SK-MEL-2 melanoma
MALME-3M melanoma = system: MALME-3M melanoma
UACC-62 melanoma = system: UACC-62 melanoma
HT29 colon = system: HT29 colon
786-0 renal = system: 786-0 renal
OVCAR-4 ovarian = system: OVCAR-4 ovarian
TK-10 renal = system: TK-10 renal
BT-549 breast = system: BT-549 breast
U251 CNS = system: U251 CNS
DU-145 prostate = system: DU-145 prostate
IGROV1 ovarian = system: IGROV1 ovarian
NCI-H460 lung = system: NCI-H460 lung
T-47D breast = system: T-47D breast
HS 578T breast = system: HS 578T breast
MOLT-4 leukemia = system: MOLT-4 leukemia

`C=CCN(C)S(=O)(=O)/N=C1\NC(=O)NC1=C(Cl)Cl` showed a GI50 (SF-539 CNS) of 1.79 µM, a TGI (SF-539 CNS) of 3.3 µM and a GI50 (CCRF-CEM leukemia) of 1.94 µM. The TGI (CCRF-CEM leukemia) was 4.68 µM, the GI50 (MDA-MB-231 breast) was 1.86 µM and the TGI (MDA-MB-231 breast) was 3.42 µM. For the same compound, the GI50 (SF-295 CNS) was 13.6 µM, the TGI (SF-295 CNS) was 26.7 µM and the GI50 (SNB-19 CNS) was 2.88 µM. For the same compound, the TGI (SNB-19 CNS) was 9.29 µM, the GI50 (CAKI-1 renal) was 1.72 µM and the TGI (CAKI-1 renal) was 3.15 µM. For the same compound, the GI50 (HCT-116 colon) was 1.84 µM, the TGI (HCT-116 colon) was 3.55 µM and the GI50 (UACC-257 melanoma) was 3.56 µM. For the same compound, the TGI (UACC-257 melanoma) was 17 µM, the GI50 (MCF7 breast) was 0.387 µM and the TGI (MCF7 breast) was > 100 µM. For the same compound, the GI50 (PC-3 prostate) was 2.35 µM, the TGI (PC-3 prostate) was 6.2 µM and the GI50 (HCC-2998 colon) was 1.76 µM. For the same compound, the TGI (HCC-2998 colon) was 3.43 µM, the GI50 (RPMI-8226 leukemia) was 0.404 µM and the TGI (RPMI-8226 leukemia) was 9.84 µM. The GI50 (OVCAR-8 ovarian) was 2.33 µM, the TGI (OVCAR-8 ovarian) was 5.69 µM and the GI50 (A549 NSCLC) was 5.27 µM. It also gave a TGI (A549 NSCLC) of 24 µM, a GI50 (NCI-H226 lung) of 2.09 µM and a TGI (NCI-H226 lung) of 4.63 µM. It also gave a GI50 (HL-60(TB) leukemia) of 2.06 µM, a TGI (HL-60(TB) leukemia) of 5.31 µM and a GI50 (NCI-H522 lung) of 1.97 µM. For the same compound, the TGI (NCI-H522 lung) was 4.16 µM, the GI50 (RXF 393 renal) was 1.7 µM and the TGI (RXF 393 renal) was 3.37 µM. For the same compound, the GI50 (HOP-62 NSCLC) was 3.28 µM, the TGI (HOP-62 NSCLC) was 14.4 µM and the GI50 (ACHN renal) was 1.77 µM. The TGI (ACHN renal) was 3.18 µM, the GI50 (KM12 colon) was 0.437 µM and the TGI (KM12 colon) was 25.6 µM. The GI50 (COLO 205 colon) was 2.02 µM, the TGI (COLO 205 colon) was 4.37 µM and the GI50 (OVCAR-5 ovarian) was 1.69 µM. For the same compound, the TGI (OVCAR-5 ovarian) was 3.13 µM, the GI50 (SF-268 CNS) was 3.17 µM and the TGI (SF-268 CNS) was 10.7 µM. The GI50 (HOP-92 NSCLC) was 1.76 µM, the TGI (HOP-92 NSCLC) was 3.4 µM and the GI50 (EKVX NSCLC) was 1.82 µM. For the same compound, the TGI (EKVX NSCLC) was 3.64 µM, the GI50 (NCI/ADR-RES ovarian) was 2.12 µM and the TGI (NCI/ADR-RES ovarian) was 4.91 µM. The GI50 (SK-MEL-5 melanoma) was 2 µM, the TGI (SK-MEL-5 melanoma) was 4.21 µM and the GI50 (NCI-H23 lung) was 1.85 µM. The TGI (NCI-H23 lung) was 3.6 µM, the GI50 (A498 renal) was 12 µM and the TGI (A498 renal) was 24.6 µM. It also gave a GI50 (MDA-MB-435) of 1.93 µM, a TGI (MDA-MB-435) of 3.86 µM and a GI50 (SNB-75 CNS) of 1.82 µM. For the same compound, the TGI (SNB-75 CNS) was 13.1 µM, the GI50 (HCT-15 colon) was 1.63 µM and the TGI (HCT-15 colon) was 3.22 µM. The GI50 (SN12C renal) was 1.77 µM, the TGI (SN12C renal) was 3.29 µM and the GI50 (SK-OV-3 ovarian) was 17 µM. The TGI (SK-OV-3 ovarian) was 31 µM, the GI50 (SR leukemia) was 0.693 µM and the TGI (SR leukemia) was 6.68 µM. The GI50 (SK-MEL-28 melanoma) was 1.78 µM, the TGI (SK-MEL-28 melanoma) was 3.26 µM and the GI50 (M14 melanoma) was 1.89 µM. For the same compound, the TGI (M14 melanoma) was 3.73 µM, the GI50 (SW-620 colon) was 1.9 µM and the TGI (SW-620 colon) was 3.72 µM. It also gave a GI50 (UO-31 renal) of 2.82 µM, a TGI (UO-31 renal) of 11.9 µM and a GI50 (SK-MEL-2 melanoma) of 2.9 µM. The TGI (SK-MEL-2 melanoma) was 7.76 µM, the GI50 (MALME-3M melanoma) was 1.85 µM and the TGI (MALME-3M melanoma) was 3.58 µM. For the same compound, the GI50 (UACC-62 melanoma) was 1.75 µM, the TGI (UACC-62 melanoma) was 3.39 µM and the GI50 (HT29 colon) was 2.15 µM. The TGI (HT29 colon) was 4.87 µM, the GI50 (786-0 renal) was 2.39 µM and the TGI (786-0 renal) was 5.79 µM. The GI50 (OVCAR-4 ovarian) was 1.82 µM, the TGI (OVCAR-4 ovarian) was 3.36 µM and the GI50 (TK-10 renal) was 9.07 µM. The TGI (TK-10 renal) was > 100 µM, the GI50 (BT-549 breast) was 2.1 µM and the TGI (BT-549 breast) was 4.49 µM. For the same compound, the GI50 (U251 CNS) was 1.87 µM, the TGI (U251 CNS) was 4.05 µM and the GI50 (DU-145 prostate) was 4.08 µM. For the same compound, the TGI (DU-145 prostate) was 13.6 µM, the GI50 (IGROV1 ovarian) was 1.84 µM and the TGI (IGROV1 ovarian) was 3.65 µM. It also gave a GI50 (NCI-H460 lung) of 2.71 µM, a TGI (NCI-H460 lung) of 7.1 µM and a GI50 (T-47D breast) of 3.25 µM. The TGI (T-47D breast) was > 100 µM, the GI50 (HS 578T breast) was 3.64 µM and the TGI (HS 578T breast) was 30.1 µM. It also gave a GI50 (MOLT-4 leukemia) of 2.36 µM and a TGI (MOLT-4 leukemia) of 5.93 µM.
